According to patent publication US6479435B1, “Diaryl ethers and processes for their preparation and herbicidal and desiccant compositions containing them” (ISK Americas Incorporated, priority 1997, dated 2002):

Experiments:
Assay type in all cases: in vivo
[1] = system: Johnsongrass (Sorghum halepense, SORHA); assay: Pre-emerge greenhouse herbicide test, phytotoxicity rating; settings: 14 days after application, rating scale 0-100
Procedure, shortened: (§1)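 Visual 0–100 injury rating (100 = all plants dead) taken 14 days after treatment. Rates of 125–1000 g ai/ha in acetone, 187 l/ha, were sprayed onto soil one day post-sowing; pots were surface-watered to incorporate, then bottom-watered.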

[2] = system: barnyardgrass (Echinochloa crusgalli, ECHCG); assay: as above; settings: 14 days after application, rating scale 0-100
Procedure, shortened: as §1

[3] = system: common ragweed (Ambrosia artemisiifolia L., AMBEL); assay: as above; settings: 14 days after application, rating scale 0-100
Procedure, shortened: as §1

[4] = system: green foxtail (Setaria viridis, SETVI); assay: as above; settings: 14 days after application, rating scale 0-100
Procedure, shortened: as §1

[5] = system: ivyleaf morningglory (Ipomoea hederacea, IPOHE); assay: as above; settings: 14 days after application, rating scale 0-100
Procedure, shortened: as §1

[6] = system: lambsquarters (Chenopodium album, CHEAL); assay: as above; settings: 14 days after application, rating scale 0-100
Procedure, shortened: as §1

[7] = system: large crabgrass (Digitaria sanguinalis, DIGSA); assay: as above; settings: 14 days after application, rating scale 0-100
Procedure, shortened: as §1

[8] = system: redroot pigweed (Amaranthus retroflexus, AMARE); assay: as above; settings: 14 days after application, rating scale 0-100
Procedure, shortened: as §1

[9] = system: sicklepod (Cassia obtusifolia, CASOB); assay: as above; settings: 14 days after application, rating scale 0-100
Procedure, shortened: as §1

[10] = system: velvetleaf (Abutilon theophrasti, ABUTH); assay: as above; settings: 14 days after application, rating scale 0-100
Procedure, shortened: as §1

[11] = system: field corn (Zea mays L., var. Dekalb 535, CORN); assay: Pre-emerge greenhouse test, crop damage rating; settings: 14 days after application, rating scale 0-100
Procedure, shortened: as §1

[12] = system: upland rice (Oryza sp., var.Tebonnet, RICE); assay: Pre-emerge greenhouse test, crop damage rating; settings: 14 days after application, rating scale 0-100
Procedure, shortened: as §1

[13] = system: soybean (Glycine max L., var. Pella 86, SOY); assay: Pre-emerge greenhouse test, crop damage rating; parameters: key to SOY crop damage rating: 0 = no damage, 100 = complete death of all plants; settings: 14 days after application, rating scale 0-100
Procedure, shortened: as §1

[14] = system: common ragweed (Ambrosia artemisiifolia L., AMBEL); assay: Post-emerge greenhouse herbicide test, phytotoxicity rating; settings: 14 days after application, scale 0-100
Procedure, shortened: (§2)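 Scores use a 0 (no damage) to 100 (complete kill) scale, taken 14 days after a foliar spray. Acetone solutions with 0.25% v/v non-ionic surfactant were applied by track sprayer at 187 l/ha and 63-1000 g ai/ha to bottom-watered 2-3 leaf plants.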

[15] = system: Johnsongrass (Sorghum halepense, SORHA); assay: as above; settings: 14 days after application, scale 0-100
Procedure, shortened: as §2

[16] = system: barnyardgrass (Echinochloa crusgalli, ECHCG); assay: as above; settings: 14 days after application, scale 0-100
Procedure, shortened: as §2

[17] = system: green foxtail (Setaria viridis, SETVI); assay: as above; settings: 14 days after application, scale 0-100
Procedure, shortened: as §2

[18] = system: ivyleaf morningglory (Ipomoea hederacea, IPOHE); assay: as above; settings: 14 days after application, scale 0-100
Procedure, shortened: as §2

[19] = system: lambsquarters (Chenopodium album, CHEAL); assay: as above; settings: 14 days after application, scale 0-100
Procedure, shortened: as §2

[20] = system: large crabgrass (Digitaria sanguinalis, DIGSA); assay: as above; settings: 14 days after application, scale 0-100
Procedure, shortened: as §2

[21] = system: redroot pigweed (Amaranthus retroflexus, AMARE); assay: as above; settings: 14 days after application, scale 0-100
Procedure, shortened: as §2

[22] = system: sicklepod (Cassia obtusifolia, CASOB); assay: as above; settings: 14 days after application, scale 0-100
Procedure, shortened: as §2

[23] = system: velvetleaf (Abutilon theophrasti, ABUTH); assay: as above; settings: 14 days after application, scale 0-100
Procedure, shortened: as §2

[24] = system: field corn (Zea mays L., var. Dekalb 535, CORN); assay: Post-emerge greenhouse test, crop damage rating; settings: 14 days after application, scale 0-100
Procedure, shortened: as §2

[25] = system: upland rice (Oryza sp., var.Tebonnet, RICE); assay: Post-emerge greenhouse test, crop damage rating; settings: 14 days after application, scale 0-100
Procedure, shortened: as §2

[26] = system: soybean (Glycine max L., var. Pella 86, SOY); assay: Post-emerge greenhouse test, crop damage rating; parameters: key to crop damage rating SOY: 0-100 scale: 0 = no damage, 100 = complete death of all plants; settings: 14 days after application, scale 0-100
Procedure, shortened: as §2

O=c1n(-c2cc(Oc3cccc(Cl)n3)c(Cl)cc2F)c(=S)n2n1CCCC2 [Compound 8-26]
0: SORHA phytotoxicity rating ([1]; Rate 500 g al/ha) | ECHCG phytotoxicity rating ([2]; Rate 500 g al/ha) | AMBEL phytotoxicity rating ([3]; Rate 500 g al/ha) | SETVI phytotoxicity rating ([4]; Rate 500 g al/ha) | IPOHE phytotoxicity rating ([5]; Rate 500 g al/ha) | CHEAL phytotoxicity rating ([6]; Rate 500 g al/ha) | DIGSA phytotoxicity rating ([7]; Rate 500 g al/ha) | AMARE phytotoxicity rating ([8]; Rate 500 g al/ha) | CASOB phytotoxicity rating ([9]; Rate 500 g al/ha) | ABUTH phytotoxicity rating ([10]; Rate 500 g al/ha) | CORN crop damage rating ([11]; Rate 500 g al/ha) | RICE crop damage rating ([12]; Rate 500 g al/ha) | SOY crop damage rating ([13]; Rate 500 g al/ha) | phytotoxicity rating AMBEL ([14]; rate 500 g ai/ha) | phytotoxicity rating SORHA ([15]; rate 500 g ai/ha) | phytotoxicity rating ECHCG ([16]; rate 500 g ai/ha) | phytotoxicity rating SETVI ([17]; rate 500 g ai/ha) | phytotoxicity rating IPOHE ([18]; rate 500 g ai/ha) | phytotoxicity rating CHEAL ([19]; rate 500 g ai/ha) | phytotoxicity rating DIGSA ([20]; rate 500 g ai/ha) | phytotoxicity rating AMARE ([21]; rate 500 g ai/ha) | phytotoxicity rating CASOB ([22]; rate 500 g ai/ha) | phytotoxicity rating ABUTH ([23]; rate 500 g ai/ha) | crop damage rating CORN ([24]; rate 500 g ai/ha) | crop damage rating RICE ([25]; rate 500 g ai/ha) | crop damage rating SOY ([26]; rate 500 g ai/ha)

O=c1n(-c2cc(Oc3nc(Cl)ccc3C(F)(F)F)c(Cl)cc2F)c(=S)n2n1CCCC2 [Compound 8-27]
50: DIGSA phytotoxicity rating ([7]; Rate 500 g al/ha) | ABUTH phytotoxicity rating ([10]; Rate 125 g al/ha) | phytotoxicity rating SETVI ([17]; rate 63 g ai/ha) | phytotoxicity rating SETVI ([17]; rate 500 g ai/ha) | phytotoxicity rating IPOHE ([18]; rate 63 g ai/ha)
85: phytotoxicity rating AMBEL ([14]; rate 500 g ai/ha)
30: SORHA phytotoxicity rating ([1]; Rate 500 g al/ha) | IPOHE phytotoxicity rating ([5]; Rate 500 g al/ha) | phytotoxicity rating SORHA ([15]; rate 63 g ai/ha) | phytotoxicity rating CASOB ([22]; rate 63 g ai/ha)
80: CHEAL phytotoxicity rating ([6]; Rate 125 g al/ha) | CASOB phytotoxicity rating ([9]; Rate 500 g al/ha) | phytotoxicity rating IPOHE ([18]; rate 500 g ai/ha) | phytotoxicity rating ABUTH ([23]; rate 63 g ai/ha) | crop damage rating SOY ([26]; rate 500 g ai/ha)
10: DIGSA phytotoxicity rating ([7]; Rate 125 g al/ha) | RICE crop damage rating ([12]; Rate 500 g al/ha) | phytotoxicity rating ECHCG ([16]; rate 500 g ai/ha) | phytotoxicity rating DIGSA ([20]; rate 63 g ai/ha) | crop damage rating CORN ([24]; rate 500 g ai/ha)
100: SETVI phytotoxicity rating ([4]; Rate 500 g al/ha) | CHEAL phytotoxicity rating ([6]; Rate 500 g al/ha) | AMARE phytotoxicity rating ([8]; Rate 125 g al/ha) | AMARE phytotoxicity rating ([8]; Rate 500 g al/ha) | ABUTH phytotoxicity rating ([10]; Rate 500 g al/ha) | phytotoxicity rating CHEAL ([19]; rate 500 g ai/ha) | phytotoxicity rating AMARE ([21]; rate 500 g ai/ha) | phytotoxicity rating CASOB ([22]; rate 500 g ai/ha) | phytotoxicity rating ABUTH ([23]; rate 500 g ai/ha)
20: phytotoxicity rating SORHA ([15]; rate 500 g ai/ha) | phytotoxicity rating DIGSA ([20]; rate 500 g ai/ha)
0: SORHA phytotoxicity rating ([1]; Rate 125 g al/ha) | ECHCG phytotoxicity rating ([2]; Rate 125 g al/ha) | ECHCG phytotoxicity rating ([2]; Rate 500 g al/ha) | AMBEL phytotoxicity rating ([3]; Rate 125 g al/ha) | AMBEL phytotoxicity rating ([3]; Rate 500 g al/ha) | IPOHE phytotoxicity rating ([5]; Rate 125 g al/ha) | CASOB phytotoxicity rating ([9]; Rate 125 g al/ha) | CORN crop damage rating ([11]; Rate 125 g al/ha) | CORN crop damage rating ([11]; Rate 500 g al/ha) | RICE crop damage rating ([12]; Rate 125 g al/ha) | SOY crop damage rating ([13]; Rate 125 g al/ha) | SOY crop damage rating ([13]; Rate 500 g al/ha) | phytotoxicity rating ECHCG ([16]; rate 63 g ai/ha) | crop damage rating RICE ([25]; rate 63 g ai/ha)
60: SETVI phytotoxicity rating ([4]; Rate 125 g al/ha) | phytotoxicity rating AMBEL ([14]; rate 63 g ai/ha)
5: crop damage rating CORN ([24]; rate 63 g ai/ha) | crop damage rating RICE ([25]; rate 500 g ai/ha)
70: crop damage rating SOY ([26]; rate 63 g ai/ha)
90: phytotoxicity rating CHEAL ([19]; rate 63 g ai/ha) | phytotoxicity rating AMARE ([21]; rate 63 g ai/ha)
